In the supplement of paper PMC10307832:

Tests used:
Test in all cases: relative viability (nuclei count vs DMSO), 5 days (fraction); higher = more cells survive
BI-D1870 + Crizotinib = compound: CC(C)CCN1c2nc(Nc3cc(F)c(O)c(F)c3)ncc2N(C)C(=O)C1C [BI-D1870] + C[C@@H](Oc1cc(-c2cnn(C3CCNCC3)c2)cnc1N)c1c(Cl)ccc(F)c1Cl [Crizotinib] (partner 1 µM)
How it was run: (§1)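 The day after seeding in 1536-well plates, lung cancer cell lines were treated by pin tool with a single drug, or with a fixed anchor-drug dose together with five library-drug doses (not always all listed) in √10 steps. After 5 days, a combined fix-and-stain solution (final 0.05% Triton X-100, 1% formaldehyde, 1 ug/ml Hoechst) was added. Nuclei counted on 4× images gave relative viability as treated counts over vehicle counts, reported as the median of duplicate plates.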

BI-D1870 + Luminespib = compound: CC(C)CCN1c2nc(Nc3cc(F)c(O)c(F)c3)ncc2N(C)C(=O)C1C [BI-D1870] + CCNC(=O)c1noc(-c2cc(C(C)C)c(O)cc2O)c1-c1ccc(CN2CCOCC2)cc1 [Luminespib] (partner 0.01 µM)
How it was run: as §1

Zebularine + OSI-027 = compound: O=c1ncccn1[C@@H]1O[C@H](CO)[C@@H](O)[C@H]1O [Zebularine] + COc1cccc2cc(-c3nc([C@H]4CC[C@H](C(=O)O)CC4)n4ncnc(N)c34)[nH]c12 [OSI-027] (partner 0.5 µM)
How it was run: as §1

BI-D1870 + Pemetrexed = compound: CC(C)CCN1c2nc(Nc3cc(F)c(O)c(F)c3)ncc2N(C)C(=O)C1C [BI-D1870] + Nc1nc2[nH]cc(CCc3ccc(C(=O)N[C@@H](CCC(=O)O)C(=O)O)cc3)c2c(=O)[nH]1 [Pemetrexed] (partner 0.2 µM)
How it was run: as §1

Cell Line | relative viability (BI-D1870 + Crizotinib; first compound 0.04 µM) | relative viability (BI-D1870 + Crizotinib; first compound 0.1265 µM) | relative viability (BI-D1870 + Crizotinib; first compound 0.4 µM) | relative viability (BI-D1870 + Crizotinib; first compound 1.265 µM) | relative viability (BI-D1870 + Crizotinib; first compound 4 µM) | relative viability (BI-D1870 + Luminespib; first compound 0.04 µM) | relative viability (BI-D1870 + Luminespib; first compound 0.1265 µM) | relative viability (BI-D1870 + Luminespib; first compound 0.4 µM) | relative viability (BI-D1870 + Luminespib; first compound 1.265 µM) | relative viability (BI-D1870 + Luminespib; first compound 4 µM) | relative viability (Zebularine + OSI-027; first compound 1 µM) | relative viability (Zebularine + OSI-027; first compound 3.162 µM) | relative viability (Zebularine + OSI-027; first compound 10 µM) | relative viability (Zebularine + OSI-027; first compound 31.62 µM) | relative viability (Zebularine + OSI-027; first compound 100 µM) | relative viability (BI-D1870 + Pemetrexed; first compound 0.04 µM) | relative viability (BI-D1870 + Pemetrexed; first compound 0.1265 µM) | relative viability (BI-D1870 + Pemetrexed; first compound 0.4 µM) | relative viability (BI-D1870 + Pemetrexed; first compound 1.265 µM) | relative viability (BI-D1870 + Pemetrexed; first compound 4 µM)
EBC-1 | 0.16 | 0.182 | 0.209 | 0.188 | 0.134 | – | – | – | – | – | – | – | – | – | – | – | – | – | – | –
EKVX | 0.929 | 0.986 | 0.92 | 0.941 | 0.816 | 0.836 | 0.819 | 0.879 | 0.993 | 0.792 | 0.679 | 0.644 | 0.617 | 0.749 | 0.695 | 0.399 | 0.418 | 0.359 | 0.67 | 0.391
EMC-BAC-2 | 0.847 | 0.739 | 0.726 | 0.853 | 0.835 | 1.2 | 1.08 | 1.02 | 1.38 | 1.21 | 0.406 | 0.366 | 0.341 | 0.387 | 0.368 | 0.457 | 0.456 | 0.421 | 0.541 | 0.46
EPLC-272H | 0.926 | 0.86 | 0.904 | 0.972 | 0.931 | 0.559 | 0.13 | 0.207 | 0.245 | 0.272 | 0.279 | 0.213 | 0.312 | 0.324 | 0.27 | 0.325 | 0.355 | 0.242 | 0.295 | 0.202
H3255 | 0.831 | 0.924 | 0.862 | 0.987 | 0.981 | 0.929 | 0.887 | 0.884 | 1.09 | 0.961 | 0.605 | 0.522 | 0.43 | 0.689 | 0.487 | 0.57 | 0.563 | 0.584 | 0.584 | 0.526
HARA | 1.15 | 0.941 | 0.994 | 1.24 | 0.922 | 0.939 | 0.626 | 0.671 | 0.486 | 0.666 | 0.367 | – | – | 0.42 | 0.245 | 0.234 | 0.227 | 0.267 | 0.243 | 0.218
HCC-15 | 0.919 | 0.733 | 0.74 | 0.81 | 0.594 | 0.314 | 0.205 | 0.332 | 0.34 | 0.344 | 0.85 | 0.587 | 0.457 | 0.537 | 0.27 | 0.222 | 0.23 | 0.229 | 0.215 | 0.187
HCC-44 | 0.921 | 0.798 | 0.771 | 0.851 | 0.829 | 1.46 | 1 | 0.986 | 1.26 | 0.695 | 0.627 | 0.462 | 0.435 | 0.398 | 0.364 | 0.653 | 0.631 | 0.632 | 0.75 | 0.689
HCC-78 | 0.365 | 0.318 | 0.309 | 0.295 | 0.245 | – | – | – | – | – | 0.394 | 0.381 | 0.305 | 0.366 | 0.401 | 1.06 | 0.889 | 0.947 | 0.916 | 0.919
